From US10052311B2, “PPAR compounds for use in the treatment of fibrotic diseases” (INVENTIVA, priority 2014, dated 2018)

Test system: anti-GBM exposed mice
Experiment: Anti-GBM induced glomerulonephritis in mice
Type: in vivo, mouse
Settings: 10 mg/kg/day po 7 days, vs vehicle

Which “Col1a expression (kidney)” value does the source give for C[C@H](CS)C(=O)N1CCC[C@H]1C(=O)O [captopril, reference compound] here?
Its value is “had no effect on Col1a expression”.

And the “Col3a expression (kidney)” value?
Its value is “had no effect on Col3a expression”.

And the “TGFβR-1 expression (kidney)” value?
Its value is “had no effect on TGFβ-R1 expression”.

What about the “kidney MCP-1 levels” value of the same compound?
The value was “significantly reduced MCP-1 levels”.

What about the kidney osteopontin levels of the same compound?
Its kidney osteopontin levels is “significantly reduced osteopontin levels”.

And the serum urea levels?
Its serum urea levels is “reduced urea level without reaching significance”.

What about the urinary albumin levels of the same compound?
The urinary albumin levels was “reduced albumin levels without reaching significance”.
